Test results as given in PubChem BioAssay (NCI).
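These data come from cells grown in 96-well plates and exposed to compound for 48 hours at five concentrations. GI50 = concentration required for 50% inhibition of growth. TGI is the concentration that stops growth completely.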

Legend:
Assay in all cases: NCI tumour cell line growth inhibition, 48 h
[1] = tested on: UACC-257 melanoma
[2] = tested on: IGROV1 ovarian
[3] = tested on: A498 renal
[4] = tested on: EKVX NSCLC
[5] = tested on: LOX IMVI melanoma
[6] = tested on: MDA-MB-231 breast
[7] = tested on: A549 NSCLC
[8] = tested on: RXF 393 renal
[9] = tested on: NCI/ADR-RES ovarian
[10] = tested on: K-562 leukemia
[11] = tested on: ACHN renal
[12] = tested on: SW-620 colon
[13] = tested on: SK-MEL-5 melanoma
[14] = tested on: BT-549 breast
[15] = tested on: NCI-H226 lung
[16] = tested on: 786-0 renal
[17] = tested on: OVCAR-8 ovarian
[18] = tested on: UACC-62 melanoma
[19] = tested on: CAKI-1 renal
[20] = tested on: OVCAR-4 ovarian
[21] = tested on: NCI-H522 lung
[22] = tested on: T-47D breast
[23] = tested on: SNB-75 CNS
[24] = tested on: SK-MEL-28 melanoma
[25] = tested on: MDA-N
[26] = tested on: HCT-15 colon
[27] = tested on: HT29 colon
[28] = tested on: DU-145 prostate
[29] = tested on: OVCAR-3 ovarian
[30] = tested on: MOLT-4 leukemia
[31] = tested on: SN12C renal
[32] = tested on: TK-10 renal
[33] = tested on: MDA-MB-435
[34] = tested on: SK-MEL-2 melanoma
[35] = tested on: NCI-H23 lung
[36] = tested on: HL-60(TB) leukemia
[37] = tested on: COLO 205 colon
[38] = tested on: MCF7 breast
[39] = tested on: U251 CNS
[40] = tested on: UO-31 renal
[41] = tested on: MALME-3M melanoma
[42] = tested on: PC-3 prostate
[43] = tested on: SF-268 CNS
[44] = tested on: CCRF-CEM leukemia
[45] = tested on: SF-295 CNS
[46] = tested on: M14 melanoma
[47] = tested on: OVCAR-5 ovarian
[48] = tested on: HCT-116 colon
[49] = tested on: SNB-19 CNS
[50] = tested on: SK-OV-3 ovarian
[51] = tested on: HOP-92 NSCLC
[52] = tested on: RPMI-8226 leukemia
[53] = tested on: HOP-62 NSCLC
[54] = tested on: HS 578T breast
[55] = tested on: KM12 colon
[56] = tested on: SF-539 CNS
[57] = tested on: NCI-H460 lung
[58] = tested on: SR leukemia

## CN1CCCC1c1cccnc1.O=C(O)c1ccccc1O.O=C([O-])c1ccccc1[OH2+].O=C([O-])c1ccccc1[OH2+].O=C([O-])c1ccccc1[OH2+].[Cu+2] (stereo not given)
[1]
  GI50: > 100 µM
  TGI: > 100 µM
[2]
  GI50: 91.1 µM
  TGI: > 100 µM
[3]
  GI50: 31.3 µM
  TGI: 76.1 µM
[4]
  GI50: > 100 µM
  TGI: > 100 µM
[5]
  GI50: > 100 µM
  TGI: > 100 µM
[6]
  GI50: > 100 µM
  TGI: > 100 µM
[7]
  GI50: 78.9 µM
  TGI: > 100 µM
[8]
  GI50: > 100 µM
  TGI: > 100 µM
[9]
  GI50: > 100 µM
  TGI: > 100 µM
[10]
  GI50: > 100 µM
  TGI: > 100 µM
[11]
  GI50: > 100 µM
  TGI: > 100 µM
[12]
  GI50: > 100 µM
  TGI: > 100 µM
[13]
  GI50: 33.3 µM
  TGI: > 100 µM
[14]
  GI50: > 100 µM
  TGI: > 100 µM
[15]
  GI50: > 100 µM
  TGI: > 100 µM
[16]
  GI50: > 100 µM
  TGI: > 100 µM
[17]
  GI50: > 100 µM
  TGI: > 100 µM
[18]
  GI50: > 100 µM
  TGI: > 100 µM
[19]
  GI50: > 100 µM
  TGI: > 100 µM
[20]
  GI50: 56.1 µM
  TGI: > 100 µM
[21]
  GI50: > 100 µM
  TGI: > 100 µM
[22]
  GI50: > 100 µM
  TGI: > 100 µM
[23]
  GI50: > 100 µM
  TGI: > 100 µM
[24]
  GI50: > 100 µM
  TGI: > 100 µM
[25]
  GI50: > 100 µM
  TGI: > 100 µM
[26]
  GI50: > 100 µM
  TGI: > 100 µM
[27]
  GI50: > 100 µM
  TGI: > 100 µM
[28]
  GI50: > 100 µM
  TGI: > 100 µM
[29]
  GI50: > 100 µM
  TGI: > 100 µM
[30]
  GI50: > 100 µM
  TGI: > 100 µM
[31]
  GI50: > 100 µM
  TGI: > 100 µM
[32]
  GI50: > 100 µM
  TGI: > 100 µM
[33]
  GI50: > 100 µM
  TGI: > 100 µM
[34]
  GI50: > 100 µM
  TGI: > 100 µM
[35]
  GI50: > 100 µM
  TGI: > 100 µM
[36]
  GI50: > 100 µM
  TGI: > 100 µM
[37]
  GI50: > 100 µM
  TGI: > 100 µM
[38]
  GI50: 45.3 µM
  TGI: > 100 µM
[39]
  GI50: > 100 µM
  TGI: > 100 µM
[40]
  GI50: > 100 µM
  TGI: > 100 µM
[41]
  GI50: > 100 µM
  TGI: > 100 µM
[42]
  GI50: > 100 µM
  TGI: > 100 µM
[43]
  GI50: > 100 µM
  TGI: > 100 µM
[44]
  GI50: > 100 µM
  TGI: > 100 µM
[45]
  GI50: > 100 µM
  TGI: > 100 µM
[46]
  GI50: > 100 µM
  TGI: > 100 µM
[47]
  GI50: > 100 µM
  TGI: > 100 µM
[48]
  GI50: > 100 µM
  TGI: > 100 µM
[49]
  GI50: 39.6 µM
  TGI: > 100 µM
[50]
  GI50: > 100 µM
  TGI: > 100 µM
[51]
  GI50: > 100 µM
  TGI: > 100 µM
[52]
  GI50: > 100 µM
  TGI: > 100 µM
[53]
  GI50: > 100 µM
  TGI: > 100 µM
[54]
  GI50: > 100 µM
  TGI: > 100 µM
[55]
  GI50: > 100 µM
  TGI: > 100 µM

## c1ccc(NNC2=NCCN2)cc1
[1]
  TGI: > 100 µM
[2]
  TGI: > 100 µM
[3]
  TGI: > 100 µM
[4]
  TGI: > 100 µM
[5]
  TGI: > 100 µM
[6]
  TGI: > 100 µM
[7]
  TGI: > 100 µM
[9]
  TGI: > 100 µM
[10]
  TGI: > 100 µM
[11]
  TGI: > 100 µM
[12]
  TGI: > 100 µM
[13]
  TGI: > 100 µM
[14]
  TGI: > 100 µM
[15]
  TGI: > 100 µM
[16]
  TGI: > 100 µM
[17]
  TGI: > 100 µM
[18]
  TGI: > 100 µM
[19]
  TGI: > 100 µM
[20]
  TGI: > 100 µM
[21]
  TGI: > 100 µM
[22]
  TGI: > 100 µM
[23]
  TGI: > 100 µM
[24]
  TGI: > 100 µM
[25]
  TGI: > 100 µM
[26]
  TGI: > 100 µM
[27]
  TGI: > 100 µM
[28]
  TGI: > 100 µM
[29]
  TGI: > 100 µM
[30]
  TGI: > 100 µM
[31]
  TGI: > 100 µM
[32]
  TGI: > 100 µM
[33]
  TGI: > 100 µM
[34]
  TGI: > 100 µM
[35]
  TGI: > 100 µM
[36]
  TGI: > 100 µM
[37]
  TGI: > 100 µM
[38]
  TGI: > 100 µM
[56]
  TGI: > 100 µM
[39]
  TGI: > 100 µM
[40]
  TGI: > 100 µM
[42]
  TGI: > 100 µM
[43]
  TGI: > 100 µM
[57]
  TGI: > 100 µM
[44]
  TGI: > 100 µM
[45]
  TGI: > 100 µM
[46]
  TGI: > 100 µM
[47]
  TGI: > 100 µM
[48]
  TGI: > 100 µM
[49]
  TGI: > 100 µM
[50]
  TGI: > 100 µM
[58]
  TGI: > 100 µM
[52]
  TGI: > 100 µM
[53]
  TGI: > 100 µM
[54]
  TGI: > 100 µM
[55]
  TGI: > 100 µM
